For orientation: IC50 means the concentration needed to halve the response being measured. By stoichiometry N is commonly meant the number of molecules, sites or subunits per partner or assembly.

Assay [1] addresses T1, Ribosomal S6 kinase 2 (RSK2) (Mus musculus, UniProt P18654).
T1 construct: gene Rps6ka3; full-length mouse RSK2 (amino acids 1–740), expressed in E. coli, phosphorylated in vitro by ERK2 and PDK1
The experiment in a line: ADP-Glo kinase assay with S6 peptide at […] ATP; also thermal shift (SYPRO Orange, ~[…]°C). In kind it is biochemical. For orientation: ADP-Glo first removes unused ATP, then detects ADP through luciferase.

Assay [2] addresses full-length murine ribosomal S6 kinase 2 (RSK2) (mouse) (UniProt P18654). Briefly: dynamic light scattering; RSK2 at ~0.7 mg/ml, 10°C, 50 mM Tris pH 8.0, 500 mM NaCl, 5 mM 2-mercaptoethanol; dimer of monomers.

T1 sequence (P18654 whole entry, the tested form may be a part): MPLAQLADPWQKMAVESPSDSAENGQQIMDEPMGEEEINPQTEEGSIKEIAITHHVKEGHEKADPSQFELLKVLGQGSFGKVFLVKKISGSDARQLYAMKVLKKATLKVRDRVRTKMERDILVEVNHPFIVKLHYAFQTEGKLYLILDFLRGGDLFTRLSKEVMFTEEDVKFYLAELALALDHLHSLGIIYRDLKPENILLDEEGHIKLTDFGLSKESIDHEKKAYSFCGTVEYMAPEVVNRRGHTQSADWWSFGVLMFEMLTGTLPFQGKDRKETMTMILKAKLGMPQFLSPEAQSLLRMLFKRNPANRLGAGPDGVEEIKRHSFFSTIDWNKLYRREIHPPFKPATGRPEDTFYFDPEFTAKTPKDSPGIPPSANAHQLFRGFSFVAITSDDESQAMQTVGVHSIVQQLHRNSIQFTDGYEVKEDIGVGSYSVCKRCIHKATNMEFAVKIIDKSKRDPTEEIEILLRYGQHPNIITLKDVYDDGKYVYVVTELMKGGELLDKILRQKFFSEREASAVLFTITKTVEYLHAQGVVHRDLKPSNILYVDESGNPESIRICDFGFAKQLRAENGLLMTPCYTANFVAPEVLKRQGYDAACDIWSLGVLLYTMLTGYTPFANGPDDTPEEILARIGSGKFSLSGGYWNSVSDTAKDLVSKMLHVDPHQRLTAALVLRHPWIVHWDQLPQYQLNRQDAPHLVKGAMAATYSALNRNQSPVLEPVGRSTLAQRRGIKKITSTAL

Regarding `CC(=O)O[C@@H]1[C@@H](OC(C)=O)[C@@H](O)[C@H](Oc2c(-c3ccc(O)cc3)oc3cc(O)cc(O)c3c2=O)O[C@H]1C` [SL0101], the IC50 in assay [1] was about 8 µM. The molecule “full-length murine ribosomal S6 kinase 2 (RSK2) (from UniProt P18654 1-740) (enzyme)” came in with a stoichiometry N in assay [2] of 2.

Source of the values: PMC5061434, “Bacterial Expression, Purification and In Vitro Phosphorylation of Full-Length Ribosomal S6 Kinase 2 (RSK2)” (PLoS ONE, 2016).
